Reference: patent US11505548B2, “Heterocyclic compounds and their use for treatment of helminthic infections and diseases” (Celgene Corporation, priority 2019, dated 2022)
Read-outs that look alike come from different tables or passages of the source.

Test system: Onchocerca gutturosa Adult Male Worms
Assay: Onchocerciasis in vitro screening model, worm motility score
Assay type: cell-based
Settings: read-out: O. gutturosa activity level (IC50 or MED)
[1] = in vitro, Onchocerca gutturosa adult male worms, class A/B/C
[2] = Onchocerca gutturosa, Table 1 O. gutturosa, levels A/B/C, motility or MTT readout not specified

Row | SMILES | IC50 [1] [µM] | IC50 [2] [µM]
1 | CN1CCC(Oc2ccc(-c3nsc(Nc4ncccn4)n3)nc2)CC1 [Compound 36, 3-(5-(1-methyl-piperidin-4-yloxy)pyridin-2-yl)-N-(pyrimidin-2-yl)-1,2,4-thiadiazol-5-amine] |  | 0.5 to 5
2 | CNc1cccnc1Nc1nc(-c2ccc(OC3CCN(C)CC3)cn2)ns1 [Compound 53, N3-methyl-N2-(3-(5-(1-methyl-piperidin-4-yloxy)pyridin-2-yl)-1,2,4-thiadiazol-5-yl) pyridine-2,3-diamine] |  | 0.2 to 0.5
3 | COc1ccc(-c2nsc(Nc3ccc(C4CCCC4)cn3)n2)nc1 [Compound 68, N-(5-cyclopentyl-pyridin-2-yl)-3-(5-methoxypyridin-2-yl)-1,2,4-thiadiazol-5-amine] |  | 0.2 to 0.5
4 | CCOc1ccc(Nc2nc(-c3cc(OC)ccn3)no2)nc1 [Compound 35, N-(5-ethoxy-pyridin-2-yl)-3-(4-methoxy-pyridin-2-yl)-1,2,4-oxadiazol-5-amine] |  | < 0.2
5 | CN(C)c1cccnc1Nc1nc(-c2cc(OC3CC3)c(C(F)(F)F)cn2)ns1 [Compound 153, N2-(3-(4-cyclo-propoxy-5-(trifluoromethyl)pyridin-2-yl)-1,2,4-thiadiazol-5-yl)-N3,N3-dimethyl-pyridine-2,3-diamine] |  | 0.5 to 5
6 | COc1ccc(-c2nsc(Nc3ccc(C4CCN(C)CC4)cn3)n2)nc1 [Compound 50, 3-(5-methoxy-pyridin-2-yl)-N-(5-(1-methyl-piperidin-4-yl)pyridin-2-yl)-1,2,4-thiadiazol-5-amine] |  | 0.5 to 5
7 | CC(C)Oc1ccc(-c2nsc(Nc3ncccc3N(C)C(=O)C3CCCC3)n2)nc1 [Compound 172, N-(2-(3-(5-isopropoxy-pyridin-2-yl)-1,2,4-thiadiazol-5-ylamino)pyridin-3-yl)-N-methylcyclo-pentane-carboxamide] |  | < 0.2
8 | Cc1cccnc1Nc1nc(-c2ccc3c(n2)CN(CC2CC2)C3)ns1 [Compound 114, 3-(6-(cyclo-propylmethyl)-6,7-dihydro-5H-pyrrolo[3,4-b]pyridin-2-yl)-N-(3-methylpyridin-2-yl)-1,2,4-thiadiazol-5-amine] |  | 0.5 to 5
9 | CC(C)Oc1ccc(-c2nsc(Nc3ncc(C(=O)NC4CC(F)(F)C4)cc3C(C)C)n2)nc1 [Compound 195, N-(3,3-difluoro-cyclobutyl)-6-(3-(5-isoprop-oxypyridin-2-yl)-1,2,4-thiadiazol-5-ylamino)-5-isopropyl-nicotinamide] |  | < 0.2
10 | CC(=O)N(c1cccnc1Nc1nc(-c2ccc(OC(C)C)cn2)ns1)C(C)C [Compound 205, N-(2-(3-(5-isopropoxy-pyridin-2-yl)-1,2,4-thiadiazol-5-ylamino)pyridin-3-yl)-N-isopropy-lacetamide] | 0.5 to 5 | 
11 | COc1cccnc1Nc1nc(-c2cc(C(F)(F)F)c(OC3CC3)cn2)ns1 [Compound 134, 3-(5-cyclo-propoxy-4-(trifluoromethyl)pyridin-2-yl)-N-(3-methoxy-pyridin-2-yl)-1,2,4-thiadiazol-5-amine] |  | 0.5 to 5
12 | Fc1cccnc1-c1noc(Nc2cc(C(F)(F)F)ccn2)n1 [Compound 27, 3-(3-fluoropyridin-2-yl)-N-(4-(trifluoro-methyl)pyridin-2-yl)-1,2,4-oxadiazol-5-amine] |  | < 0.2
13 | CC(C)Oc1ccc(-c2nsc(Nc3ncccc3N(C)C(=O)C3CC3)n2)nc1 [Compound 170, N-(2-(3-(5-isopropoxy-pyridin-2-yl)-1,2,4-thiadiazol-5-ylamino)pyridin-3-yl)-N-methylcyclo-propanecarbox-amide] |  | 0.2 to 0.5
14 | CC(C)c1cnc(Nc2nc(-c3ncccc3OC3CC3)ns2)cc1C(F)(F)F [Compound 97, 3-(3-cycloprop-oxypyridin-2-yl)-N-(5-isopropyl-4-(trifluoromethyl)pyridin-2-yl)-1,2,4-thiadiazol-5-amine] |  | < 0.2
15 | Cc1cccnc1Nc1nc(-c2ccc(N3CCS(=O)(=O)CC3)cn2)ns1 [Compound 26, 4-(6-(5-((3-methylpyridin-2-yl)amino)-1,2,4-thiadiazol-3-yl)pyridin-3-yl)thio-morpholine 1,1-dioxide] |  | 0.5 to 5
16 | FC(F)(F)c1ccnc(Nc2nc(-c3cc(C4CC4)ccn3)ns2)c1 [Compound 85, 3-(4-cyclopropyl-pyridin-2-yl)-N-(4-(trifluoromethyl)pyridin-2-yl)-1,2,4-thiadiazol-5-amine] |  | < 0.2

Row | SMILES | IC50 [1] [µM] | IC50 [2] [µM]
17 | CN(C)c1cccnc1Nc1nc(-c2ccc(OC(F)F)cn2)ns1 [Compound 120, N2-(3-(5-(difluoromethoxy)pyridin-2-yl)-1,2,4-thiadiazol-5-yl)-N3,N3-dimethyl-pyridine-2,3-diamine] |  | 0.5 to 5
18 | FC(F)(F)c1ccnc(-c2nsc(Nc3cc(N4CCCC4)ccn3)n2)c1 [Compound 99, N-(4-(pyrrolidin-1-yl)pyridin-2-yl)-3-(4-(trifluoromethyl)pyridin-2-yl)-1,2,4-thiadiazol-5-amine] |  | 0.5 to 5
19 | CC(=O)N(C)c1cccnc1Nc1nc(-c2cc3c(cn2)OC(C)(C)C3)ns1 [Compound 271, N-(2-(3-(2,2-dimethyl-2,3-dihydrofuro [2,3-c]pyridin-5-yl)-1,2,4-thiadiazol-5-ylamino)pyridin-3-yl)-N-methylacetamide] | 0.5 to 5 | 
20 | Cc1cccnc1-c1nsc(Nc2ccc(C3CCN(C)CC3)cn2)n1 [Compound 49, N-(5-(1-methyl-piperidin-4-yl)pyridin-2-yl)-3-(3-methylpyridin-2-yl)-1,2,4-thiadiazol-5-amine] |  | 0.5 to 5
21 | COc1ccc(-c2nsc(Nc3ccc(OC(C)C)cn3)n2)nc1 [Compound 215, N-(5-isoprop-oxypyridin-2-yl)-3-(5-methoxy-pyridin-2-yl)-1,2,4-thiadiazol-5-amine] | 0.5 to 5 | 
22 | COc1cccnc1Nc1nc(-c2ccc(OC3CC3)cn2)ns1 [Compound 80, 3-(5-cycloprop-oxypyridin-2-yl)-N-(3-methoxypyridin-2-yl)-1,2,4-thiadiazol-5-amine] |  | 0.2 to 0.5
23 | CC(C)Oc1ccc(-c2nsc(Nc3ncccc3N(C)C)n2)nn1 [Compound 155, N2-(3-(6-isopropoxy-pyridazin-3-yl)-1,2,4-thiadiazol-5-yl)-N3,N3-dimethyl-pyridine-2,3-diamine] |  | 0.5 to 5
24 | CC(C)Oc1ccc(-c2nsc(Nc3ncccc3C(N)=O)n2)nc1 [Compound 164, 2-(3-(5-isoprop-oxypyridin-2-yl)-1,2,4-thiadiazol-5-ylamino) nicotinamide] |  | 0.5 to 5
25 | Cc1cccnc1Nc1nc(-c2ccc(OC3CCN(C)CC3)cn2)no1 [Compound 21, 3-(5-(1-methyl-piperidin-4-yloxy)pyridin-2-yl)-N-(3-methylpyridin-2-yl)-1,2,4-oxadiazol-5-amine] |  | < 0.2
26 | CC(C)c1ccnc(-c2nsc(Nc3cc(C(F)(F)F)ccn3)n2)c1 [Compound 86, 3-(4-isopropyl-pyridin-2-yl)-N-(4-(trifluoromethyl)pyridin-2-yl)-1,2,4-thiadiazol-5-amine] |  | < 0.2
27 | Cc1ccnc(Nc2nnc(-c3ncccc3C)o2)c1 [Compound 236, 5-(3-methyl-pyridin-2-yl)-N-(4-methy-lpyridin-2-yl)-1,3,4-oxadiazol-2-amine] | 0.5 to 5 | 
28 | Cc1cnc(Nc2nc(-c3cc(C(=O)N(C)C)c(OC(C)C)cn3)ns2)c(C(F)(F)F)c1 [Compound 254, 5-isopropoxy-N,N-dimethyl-2-(5-(5-methyl-3-(trifluoromethyl)pyridin-2-ylamino)-1,2,4-thiadiazol-3-yl)isonico-tinamide] | 0.5 to 5 | 
29 | Cc1cccnc1Nc1nc(-c2ccc(OC3CC4(C3)CN(C)C4)cn2)ns1 [Compound 88, 3-(5-(2-methyl-2-azaspiro[3.3]heptan-6-yloxy)pyridin-2-yl)-N-(3-methylpyridin-2-yl)-1,2,4-thiadiazol-5-amine] |  | 0.5 to 5
30 | COc1cccnc1-c1nsc(Nc2cc(C(F)(F)F)c(C(C)C)cn2)n1 [Compound 210, N-(5-isopropyl-4-(trifluoromethyl)pyridin-2-yl)-3-(3-methoxy-pyridin-2-yl)-1,2,4-thiadiazol-5-amine] | 0.2 to 0.5 | 
31 | Cc1cccnc1Nc1nc(-c2ccc(OC(C)C)cn2)ns1 [Compound 19, 3-(5-isopropoxy-pyridin-2-yl)-N-(3-methyl-pyridin-2-yl)-1,2,4-thiadiazol-5-amine] |  | < 0.2
32 | Cc1cccnc1Nc1nc(-c2ccc(OC3CCOCC3)cn2)ns1 [Compound 15, N-(3-methyl-pyridin-2-yl)-3-(5-(tetrahydro-2H-pyran-4-yloxy)pyridin-2-yl)-1,2,4-thiadiazol-5-amine] |  | < 0.2

The next lines start with results.

Row | IC50 [1] [µM] | SMILES | IC50 [2] [µM]
33 | < 0.2 | CC(=O)N(C)c1cc(C(F)(F)F)cnc1Nc1nc(-c2cc3c(cn2)CN(C(C)C)C3)ns1 [Compound 311, N-(2-(3-(2-isopropyl-2,3-dihydro-1H-pyrrolo[3,4-c]pyridin-6-yl)-1,2,4-thiadiazol-5-ylamino)-5-(trifluoromethyl)pyridin-3-yl)-N-methylacetamide] | 
34 | 0.5 to 5 | Cc1cccnc1Nc1nc(-c2ncc(OC(C)C)cn2)ns1 [Compound 315, 3-(5-isopropoxy-pyrimidin-2-yl)-N-(3-methylpyridin-2-yl)-1,2,4-thiadiazol-5-amine] | 
35 | 0.5 to 5 | CN(C)C(=O)c1cc(C(F)(F)F)cnc1Nc1nc(-c2cc3c(cn2)N(C)C(=O)C3(C)C)ns1 [Compound 292, N,N-dimethyl-5-(trifluoromethyl)-2-(3-(1,3,3-trimethyl-2-oxo-2,3-dihydro-1H-pyrrolo[2,3-c]pyridin-5-yl)-1,2,4-thiadiazol-5-ylamino) nicotinamide] | 
36 | 0.5 to 5 | CC(=O)N(C)c1cccnc1Nc1nc(-c2ccc(OC(C)C)cn2)no1 [Compound 222, N-(2-(3-(5-isopropoxy-pyridin-2-yl)-1,2,4-oxadiazol-5-ylamino)pyridin-3-yl)-N-methyl-acetamide] | 
37 | 0.5 to 5 | Cc1cccnc1Nc1nc(-c2cc(C(C)C)c(C(=O)N(C)C)cn2)ns1 [Compound 230, 4-isopropyl-N,N-dimethyl-6-(5-(3-methyl-pyridin-2-ylamino)-1,2,4-thiadiazol-3-yl)nicotinamide] | 
38 | 0.5 to 5 | CC(=O)N(C)c1cc(C(F)(F)F)cnc1Nc1nc(-c2ccc(OC(C)C)nn2)ns1 [Compound 314, N-(2-(3-(6-isopropoxy-pyridazin-3-yl)-1,2,4-thiadiazol-5-ylamino)-5-(trifluoromethyl)pyridin-3-yl)-N-methylacetamide] | 
